Measurements published in PubChem BioAssay (NCI).
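Test compounds were applied to cells in 96-well plates for 48 hours at 5 doses. GI50 is the concentration that inhibits growth by half. TGI: concentration producing complete growth inhibition.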

Experiments:
Experiment in all cases: NCI-60 cell line screen, 48 h
LOX IMVI melanoma = system: LOX IMVI melanoma
SK-MEL-2 melanoma = system: SK-MEL-2 melanoma
NCI-H522 lung = system: NCI-H522 lung
TK-10 renal = system: TK-10 renal
HCT-15 colon = system: HCT-15 colon
HOP-62 NSCLC = system: HOP-62 NSCLC
SN12C renal = system: SN12C renal
RPMI-8226 leukemia = system: RPMI-8226 leukemia
M14 melanoma = system: M14 melanoma
UACC-257 melanoma = system: UACC-257 melanoma
OVCAR-8 ovarian = system: OVCAR-8 ovarian
HCT-116 colon = system: HCT-116 colon
UO-31 renal = system: UO-31 renal
ACHN renal = system: ACHN renal
MOLT-4 leukemia = system: MOLT-4 leukemia
786-0 renal = system: 786-0 renal
A549 NSCLC = system: A549 NSCLC
SK-MEL-28 melanoma = system: SK-MEL-28 melanoma
MDA-MB-231 breast = system: MDA-MB-231 breast
IGROV1 ovarian = system: IGROV1 ovarian
MCF7 breast = system: MCF7 breast
SW-620 colon = system: SW-620 colon
SF-268 CNS = system: SF-268 CNS
MDA-MB-435 = system: MDA-MB-435
DU-145 prostate = system: DU-145 prostate
HS 578T breast = system: HS 578T breast
RXF 393 renal = system: RXF 393 renal
NCI-H460 lung = system: NCI-H460 lung
OVCAR-4 ovarian = system: OVCAR-4 ovarian
SNB-75 CNS = system: SNB-75 CNS
HT29 colon = system: HT29 colon
HL-60(TB) leukemia = system: HL-60(TB) leukemia
MALME-3M melanoma = system: MALME-3M melanoma
SNB-19 CNS = system: SNB-19 CNS
OVCAR-3 ovarian = system: OVCAR-3 ovarian
SF-539 CNS = system: SF-539 CNS
UACC-62 melanoma = system: UACC-62 melanoma
SK-MEL-5 melanoma = system: SK-MEL-5 melanoma
NCI-H23 lung = system: NCI-H23 lung
K-562 leukemia = system: K-562 leukemia
SR leukemia = system: SR leukemia
CAKI-1 renal = system: CAKI-1 renal
CCRF-CEM leukemia = system: CCRF-CEM leukemia
KM12 colon = system: KM12 colon
NCI/ADR-RES ovarian = system: NCI/ADR-RES ovarian
HOP-92 NSCLC = system: HOP-92 NSCLC
T-47D breast = system: T-47D breast
SK-OV-3 ovarian = system: SK-OV-3 ovarian
OVCAR-5 ovarian = system: OVCAR-5 ovarian
NCI-H226 lung = system: NCI-H226 lung
COLO 205 colon = system: COLO 205 colon
EKVX NSCLC = system: EKVX NSCLC
U251 CNS = system: U251 CNS
BT-549 breast = system: BT-549 breast
A498 renal = system: A498 renal

O=C1CCCCN1CCCCC#Cc1ccccc1C#Cc1ccc([N+](=O)[O-])cc1
GI50 (LOX IMVI melanoma): 2.79 µM
TGI (LOX IMVI melanoma): 8.87 µM
GI50 (SK-MEL-2 melanoma): 3.65 µM
TGI (SK-MEL-2 melanoma): 16.7 µM
GI50 (NCI-H522 lung): 12.3 µM
TGI (NCI-H522 lung): 59.5 µM
GI50 (TK-10 renal): 7.72 µM
TGI (TK-10 renal): 30.5 µM
GI50 (HCT-15 colon): 1.5 µM
TGI (HCT-15 colon): 9.89 µM
GI50 (HOP-62 NSCLC): 8.01 µM
TGI (HOP-62 NSCLC): 22.5 µM
GI50 (SN12C renal): 17.1 µM
TGI (SN12C renal): 37.3 µM
GI50 (RPMI-8226 leukemia): 0.408 µM
TGI (RPMI-8226 leukemia): 3.39 µM
GI50 (M14 melanoma): 5.16 µM
TGI (M14 melanoma): 19.3 µM
GI50 (UACC-257 melanoma): 2.89 µM
TGI (UACC-257 melanoma): 8.24 µM
GI50 (OVCAR-8 ovarian): 2.81 µM
TGI (OVCAR-8 ovarian): 9.13 µM
GI50 (HCT-116 colon): 4.18 µM
TGI (HCT-116 colon): 13.5 µM
GI50 (UO-31 renal): 19.5 µM
TGI (UO-31 renal): 84.6 µM
GI50 (ACHN renal): 3.44 µM
TGI (ACHN renal): 11.3 µM
GI50 (MOLT-4 leukemia): 2.79 µM
TGI (MOLT-4 leukemia): 9.22 µM
GI50 (786-0 renal): 8.41 µM
TGI (786-0 renal): 79 µM
GI50 (A549 NSCLC): 3.03 µM
TGI (A549 NSCLC): 13 µM
GI50 (SK-MEL-28 melanoma): 10.5 µM
TGI (SK-MEL-28 melanoma): 22.4 µM
GI50 (MDA-MB-231 breast): 12.8 µM
TGI (MDA-MB-231 breast): 51.4 µM
GI50 (IGROV1 ovarian): 8.21 µM
TGI (IGROV1 ovarian): 37.5 µM
GI50 (MCF7 breast): 1.38 µM
TGI (MCF7 breast): 3.65 µM
GI50 (SW-620 colon): 5.18 µM
TGI (SW-620 colon): 18.3 µM
GI50 (SF-268 CNS): 11.7 µM
TGI (SF-268 CNS): 27.3 µM
GI50 (MDA-MB-435): 1.68 µM
TGI (MDA-MB-435): 4.83 µM
GI50 (DU-145 prostate): 17.5 µM
TGI (DU-145 prostate): 36 µM
GI50 (HS 578T breast): 5.05 µM
TGI (HS 578T breast): 23.5 µM
GI50 (RXF 393 renal): 1.68 µM
TGI (RXF 393 renal): 11.1 µM
GI50 (NCI-H460 lung): 2 µM
TGI (NCI-H460 lung): 4.35 µM
GI50 (OVCAR-4 ovarian): 4.38 µM
TGI (OVCAR-4 ovarian): 22.5 µM
GI50 (SNB-75 CNS): 2.21 µM
TGI (SNB-75 CNS): 28.9 µM
GI50 (HT29 colon): 3.74 µM
TGI (HT29 colon): 59.6 µM
GI50 (HL-60(TB) leukemia): 1.75 µM
TGI (HL-60(TB) leukemia): 6.64 µM
GI50 (MALME-3M melanoma): 37.2 µM
TGI (MALME-3M melanoma): > 100 µM
GI50 (SNB-19 CNS): 6.57 µM
TGI (SNB-19 CNS): 19.4 µM
GI50 (OVCAR-3 ovarian): 10.9 µM
TGI (OVCAR-3 ovarian): 23.6 µM
GI50 (SF-539 CNS): 3.13 µM
TGI (SF-539 CNS): 12.7 µM
GI50 (UACC-62 melanoma): 5.77 µM
TGI (UACC-62 melanoma): 20.3 µM
GI50 (SK-MEL-5 melanoma): 1.75 µM
TGI (SK-MEL-5 melanoma): 3.88 µM
GI50 (NCI-H23 lung): 4.23 µM
TGI (NCI-H23 lung): 17.1 µM
GI50 (K-562 leukemia): 3.6 µM
TGI (K-562 leukemia): 22.3 µM
GI50 (SR leukemia): 0.0255 µM
TGI (SR leukemia): 2.14 µM
GI50 (CAKI-1 renal): 2.93 µM
TGI (CAKI-1 renal): 15 µM
GI50 (CCRF-CEM leukemia): 2.87 µM
TGI (CCRF-CEM leukemia): 18.2 µM
GI50 (KM12 colon): 3.78 µM
TGI (KM12 colon): 15.7 µM
GI50 (NCI/ADR-RES ovarian): 3.35 µM
TGI (NCI/ADR-RES ovarian): 12.3 µM
GI50 (HOP-92 NSCLC): 4.39 µM
TGI (HOP-92 NSCLC): 27.4 µM
GI50 (T-47D breast): 3.52 µM
TGI (T-47D breast): 18.7 µM
GI50 (SK-OV-3 ovarian): 1.57 µM
TGI (SK-OV-3 ovarian): 6.47 µM
GI50 (OVCAR-5 ovarian): 5.25 µM
TGI (OVCAR-5 ovarian): 18.7 µM
GI50 (NCI-H226 lung): 5.03 µM
TGI (NCI-H226 lung): 22.1 µM
GI50 (COLO 205 colon): 2.75 µM
TGI (COLO 205 colon): 7.17 µM
GI50 (EKVX NSCLC): 5.26 µM
TGI (EKVX NSCLC): 40 µM
GI50 (U251 CNS): 3.79 µM
TGI (U251 CNS): 14.4 µM
GI50 (BT-549 breast): 16.6 µM
TGI (BT-549 breast): 44.6 µM
GI50 (A498 renal): 4.01 µM
TGI (A498 renal): 25 µM
